According to patent US5703093A, “Compounds and methods for the treatment of cardiovascular, inflammatory and immune disorders” (Cytomed, Inc., priority 1995, dated 1997):
Several values for one entry are separate records, joined by “and”; a condition that tells them apart may be missing. Identical values can stand only once.

What was measured:
[1] = test system: whole blood 5-lipoxygenase (LTB4); assay: Ex-vivo rat whole blood 5-lipoxygenase evaluation (ex vivo LTB4); format: in vivo
[2] = test system: Leukotriene B4 Production in Ionophore-stimulated human whole blood; assay: Inhibition of leukotriene B4 production in ionophore-stimulated human whole blood (HWB); format: cell-based; settings: A23187-stimulated, LTB4 by EIA, repeat determinations
Method: Another biological assay used to evaluate the ability of a compound to inhibit the enzyme 5-lipoxygenase is based on the classic pharmacological model of inflammation induced by inhibition of LTB4 from ionophore stimulated human whole blood.
Inhibition of Leukotriene B4 Production in Ionophore-stimulated human whole blood
Human blood was drawn into heparinized blood collection tubes, and aliquoted in 1 ml portions into 1.5 ml microfuge tubes. Test compound ([…]) of varying concentrations, dissolved in DMSO, was added to the blood sample and incubated for 15 minutes at 37° C. Calcium ionophore ([…], A23187) in DMSO was added to a final concentration of […], and the samples were incubated for 30 minutes at 37° C. Samples are then centrifuged at 1100×g (2500 rpm, H1000B rotor, in a Sorvall centrifuge) for 10 minutes at 4° C. Supernatant ([…]) was transferred into a 1.5 ml microfuge tube, […] of cold methanol added, and proteins precipitated on ice for 30 minutes. The samples were centrifuged at 110×g for 10 minutes at 4° C., and the supernatant assayed for LTB4 using a commercially available EIA kit (Cayman Chemical) according to manufacturer's specifications.

[3] = test system: whole blood 5-lipoxygenase (LTB4); assay: Ex-vivo mouse whole blood 5-lipoxygenase evaluation (ex vivo LTB4); format: in vivo; settings: 3 mg/k iv
Method: Ex-vivo mouse whole blood 5-lipoxygenase evaluation
CD-1 female mice, weighing 18-25 grams, and CD female rats, weighing 150-230 grams, were obtained from Charles River Labs. Test compounds were dissolved in 0.5% DMSO in 0.9% NaCl for administration in mice (0.5 mg/ml) and in an alcohol vehicle (2% benzyl alcohol, 1% ethanol, 40% PEG 300, 10% propylene glycol, 47% of 5% dextrose and 3.5% pluronic F-68 in DiH2 O) for use in rats (5 mg/ml). […] Heparinized whole blood (0.3 ml) was added into 1.5 ml Eppendorf centrifuge tube containing […] of 2 mM calcium ionophore A23187 (the final concentration of A23187 was […]). The sample was incubated for 30 minutes in a water bath at 37° C., and then centrifuged for 2 minutes. The plasma was diluted (x120) and assayed for LTB4 using EIA.

[4] = molecular target: T1, Cytosol 5-Lipoxygenase of Rat Basophile Leukemia Cells (Rattus norvegicus, UniProt P12527); assay: Effect on cytosol 5-lipoxygenase of rat basophile leukemia (RBL-2H3) cells; format: biochemical; settings: RBL-2H3 cytosol preparation, [14C]arachidonic acid; repeat determinations
T1 construct: The supernatant was then removed and stored in aliquots; endogenous in cells; host or cells: RBL-2H3 (rat basophilic leukemia) cells, sonicate, 20,000 x g supernatant
T1 sequence (P12527 1-673): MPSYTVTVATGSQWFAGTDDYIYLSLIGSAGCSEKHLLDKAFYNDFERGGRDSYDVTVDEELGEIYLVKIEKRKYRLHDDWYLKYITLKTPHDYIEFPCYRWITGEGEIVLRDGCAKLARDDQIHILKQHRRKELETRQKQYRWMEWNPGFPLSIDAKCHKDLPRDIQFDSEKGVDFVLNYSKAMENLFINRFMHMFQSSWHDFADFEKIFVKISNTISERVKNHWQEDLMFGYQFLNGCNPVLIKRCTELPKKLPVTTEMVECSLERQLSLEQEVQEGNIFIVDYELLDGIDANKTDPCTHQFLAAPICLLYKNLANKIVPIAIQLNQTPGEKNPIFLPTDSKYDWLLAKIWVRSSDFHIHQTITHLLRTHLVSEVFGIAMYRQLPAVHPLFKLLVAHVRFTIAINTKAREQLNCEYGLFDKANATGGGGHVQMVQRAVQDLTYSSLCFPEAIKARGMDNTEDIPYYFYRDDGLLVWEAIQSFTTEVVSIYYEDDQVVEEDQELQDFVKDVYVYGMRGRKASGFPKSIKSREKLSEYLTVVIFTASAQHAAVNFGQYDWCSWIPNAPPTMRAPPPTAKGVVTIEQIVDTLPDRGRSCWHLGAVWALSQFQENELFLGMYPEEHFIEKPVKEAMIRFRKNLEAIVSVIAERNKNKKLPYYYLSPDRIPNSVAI
Method: A wide variety of biological assays have also been used to evaluate the ability of a compound to inhibit the enzyme 5-lipoxygenase. For example, a cytosol 5-lipoxygenase of rat basophilic leukemia cells (RBL) has been widely utilized in studies on leukotriene biosynthesis. Compounds that inhibit 5-lipoxygenase decrease the levels of leukotrienes.
Effect of Compounds on Cytosol 5-Lipoxygenase of Rat Basophile Leukemia Cells
RBL-2H3 cells were grown to confluence in tissue culture flasks according to Carter et al. (J PharmExp Ther 256(3); 929-937, 1991). The cells were harvested and washed five times in calcium-and magnesium-free D-PBS. The cells were suspended at 2×10^7 /ml in 10 mM BES, 10 mM PIPES, pH 6.8, 1 mM EDTA, and then sonicated. […]
The 5-LO activity in the RBL-2H3 preparation was determined as follows: 0.1 ml reactions consisting of 0.7 mM CaCl2, 100 mM NaCl, 1 mM EDTA, 10 mM BES, 10 MM PIPES, pH 7.4, varying concentrations of test compound dissolved in DMSO (7.5% DMSO final in assay), and an amount of the RBL-2H3 preparation that will convert 15% of the arachidonic acid substrate mixture to oxygenated products (determined experimentally for each RBL-2H3 preparation), were incubated for 20 minutes at room temperature. […] The film was developed, scanned using a densitometer, and the peak areas of arachidonic acid and its product(s) are calculated. […]

PAF = PAF (Homo sapiens, UniProt P25105); settings: reported in the literature; cited from earlier work
Sequence of PAF (P25105 whole entry): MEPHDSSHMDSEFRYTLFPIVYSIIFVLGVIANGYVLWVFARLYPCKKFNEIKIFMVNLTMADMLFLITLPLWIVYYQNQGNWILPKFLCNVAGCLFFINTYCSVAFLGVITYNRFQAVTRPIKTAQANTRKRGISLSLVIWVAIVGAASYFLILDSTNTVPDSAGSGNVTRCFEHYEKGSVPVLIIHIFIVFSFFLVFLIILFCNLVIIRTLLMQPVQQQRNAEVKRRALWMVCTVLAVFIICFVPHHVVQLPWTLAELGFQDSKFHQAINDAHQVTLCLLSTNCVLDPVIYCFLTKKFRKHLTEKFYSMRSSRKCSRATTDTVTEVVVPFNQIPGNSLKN

5-lipoxygenase = molecular target: T2, 5-lipoxygenase (Homo sapiens, UniProt P09917); settings: reported in the literature; cited from earlier work
T2 sequence (P09917 1-674): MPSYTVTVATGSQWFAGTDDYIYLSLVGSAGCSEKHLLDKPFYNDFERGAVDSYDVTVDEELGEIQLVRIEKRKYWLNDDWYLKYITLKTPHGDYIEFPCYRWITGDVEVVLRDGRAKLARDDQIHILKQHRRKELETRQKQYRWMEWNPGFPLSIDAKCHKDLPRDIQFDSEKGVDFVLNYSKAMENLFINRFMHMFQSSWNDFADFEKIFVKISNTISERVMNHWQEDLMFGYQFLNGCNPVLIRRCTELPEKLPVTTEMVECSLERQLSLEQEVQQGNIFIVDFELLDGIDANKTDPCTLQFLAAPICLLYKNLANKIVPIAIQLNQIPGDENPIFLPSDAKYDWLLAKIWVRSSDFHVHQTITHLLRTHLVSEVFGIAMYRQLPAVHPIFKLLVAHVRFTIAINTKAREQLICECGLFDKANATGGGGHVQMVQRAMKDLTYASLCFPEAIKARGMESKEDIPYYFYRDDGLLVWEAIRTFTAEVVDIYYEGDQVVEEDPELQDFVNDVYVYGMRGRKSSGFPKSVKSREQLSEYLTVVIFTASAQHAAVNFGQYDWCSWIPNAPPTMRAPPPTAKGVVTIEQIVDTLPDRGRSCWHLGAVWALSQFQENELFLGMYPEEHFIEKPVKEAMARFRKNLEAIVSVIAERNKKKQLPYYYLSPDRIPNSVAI

Question: What does the source list for `NC(=O)N(O)CCCC[C@@H]1CC[C@@H](COc2ccc(F)cc2)O1`?
Answer: ex vivo LTB4 % inh. ([1]; 2 mg/k po, 900 minutes): 34%; ex vivo LTB4 % inh. ([1]; 5 mg/k po, 900 minutes): 34%; IC50 ([2]; Homo sapiens): 153 nM; ex vivo LTB4 % inh. ([3]; 15 minutes): 89%; ex vivo LTB4 % inh. ([3]; 60 minutes): 22%; ex vivo LTB4 % inh. ([3]; 180 minutes): 36%

Question: What does the source list for `NC(=O)N(O)CCC#C[C@@H]1CC[C@@H](COc2ccc(F)cc2)O1`?
Answer: ex vivo LTB4 % inh. ([1]; 2 mg/k po, 60 minutes): 93%; ex vivo LTB4 % inh. ([1]; 2 mg/k po, 360 minutes): 5%; ex vivo LTB4 % inh. ([1]; 5 mg/k po, 900 minutes): 29%; ex vivo LTB4 % inh. ([3]; 15 minutes): 94%; ex vivo LTB4 % inh. ([3]; 60 minutes): 86%; ex vivo LTB4 % inh. ([3]; 180 minutes): 44%

Question: For `NC(=O)N(O)CCC#C[C@H]1CC[C@@H](COc2ccc(F)cc2)O1`, which IC50 [4] is on record?
Answer: 2000 nM and 1260 nM and 1560 nM and 880 nM

Question: What about the “ex vivo LTB4 % inh.” value ([1]; 2 mg/k po, 60 minutes) of the same molecule?
Answer: 86%

Question: And the “ex vivo LTB4 % inh.” value ([1]; 2 mg/k po, 360 minutes)?
Answer: 63%

Question: What about the IC50 [2] of the same molecule?
Answer: 520 nM

Question: What about the IC50 ([2]; Homo sapiens) of the same molecule?
Answer: 430 nM

Question: For `NC(=O)N(O)CCC#C[C@H]1CC[C@H](COc2ccc(F)cc2)O1`, which IC50 [4] is on record?
Answer: 1350 nM and 1380 nM

Question: And the IC50 [2]?
Answer: 270 nM

Question: And the IC50 ([2]; Homo sapiens)?
Answer: 150 nM

Question: With `NC(=O)N(O)CCC#C[C@@H]1CC[C@H](COc2ccc(F)cc2)O1` as the molecule, how does the IC50 ([2]; Homo sapiens) read?
Answer: 180 nM

Question: Which PAF antagonism (PAF) does the source give for `COc1cc([C@H]2CC[C@H](c3cc(OC)c(OC)c(OC)c3)S2)cc(OC)c1OC` (relative stereo) [L-653,150, trans-2,5-bis-(3,4,5-trimethoxyphenyl)tetrahydrothiophene] here?
Answer: potent PAF antagonist

Question: What about the “inhibition of 5-lipoxygenase” value (5-lipoxygenase) of the same molecule?
Answer: moderate inhibitor of 5-lipoxygenase

Question: Which IC50 ([2]; Homo sapiens) does the source give for `NC(=O)N(O)CCCC[C@H]1CC[C@H](COc2ccc(F)cc2)O1` (single isomer, unassigned) here?
Answer: 420 nM
